Measurements reported in PubChem BioAssay (NCI).
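At the GI50, growth is halved. Definition used: TGI = concentration required for complete inhibition of growth.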

Columns and labels:
Experiment in all cases: growth of human tumour cells (NCI), 384-well format
A549 NSCLC = system: A549 NSCLC
HS 578T breast = system: HS 578T breast
RXF 393 renal = system: RXF 393 renal
NCI-H322M lung = system: NCI-H322M lung
CCRF-CEM leukemia = system: CCRF-CEM leukemia
SF-539 CNS = system: SF-539 CNS
RPMI-8226 leukemia = system: RPMI-8226 leukemia
SN12C renal = system: SN12C renal
DU-145 prostate = system: DU-145 prostate
HCT-116 colon = system: HCT-116 colon
SK-MEL-5 melanoma = system: SK-MEL-5 melanoma
EKVX NSCLC = system: EKVX NSCLC
HCT-15 colon = system: HCT-15 colon
ACHN renal = system: ACHN renal
OVCAR-5 ovarian = system: OVCAR-5 ovarian
HOP-62 NSCLC = system: HOP-62 NSCLC
NCI/ADR-RES ovarian = system: NCI/ADR-RES ovarian
HCC-2998 colon = system: HCC-2998 colon
A498 renal = system: A498 renal
786-0 renal = system: 786-0 renal
SK-MEL-28 melanoma = system: SK-MEL-28 melanoma
OVCAR-4 ovarian = system: OVCAR-4 ovarian
COLO 205 colon = system: COLO 205 colon
OVCAR-3 ovarian = system: OVCAR-3 ovarian
PC-3 prostate = system: PC-3 prostate
TK-10 renal = system: TK-10 renal
LOX IMVI melanoma = system: LOX IMVI melanoma
CAKI-1 renal = system: CAKI-1 renal
KM12 colon = system: KM12 colon

**Q.** How did the GI50 (A549 NSCLC) turn out when COc1ncc(Nc2ncc([C@@H](C)N3CCN(S(C)(=O)=O)CC3)cc2-c2nc(C)nc(N)n2)cc1F was run?
**A.** 0.138 µM

**Q.** And the TGI (A549 NSCLC)?
**A.** 11.9 µM

**Q.** And the GI50 (HS 578T breast)?
**A.** 0.017 µM

**Q.** What about the TGI (HS 578T breast) of the same compound?
**A.** 0.333 µM

**Q.** And the GI50 (RXF 393 renal)?
**A.** 0.0125 µM

**Q.** And the TGI (RXF 393 renal)?
**A.** 0.0763 µM

**Q.** And the GI50 (NCI-H322M lung)?
**A.** 0.367 µM

**Q.** What about the TGI (NCI-H322M lung) of the same compound?
**A.** 27.9 µM

**Q.** And the GI50 (CCRF-CEM leukemia)?
**A.** 0.0891 µM

**Q.** What about the TGI (CCRF-CEM leukemia) of the same compound?
**A.** 1.55 µM

**Q.** What about the GI50 (SF-539 CNS) of the same compound?
**A.** 0.179 µM

**Q.** And the TGI (SF-539 CNS)?
**A.** 4.15 µM

**Q.** What about the GI50 (RPMI-8226 leukemia) of the same compound?
**A.** 2.8 µM

**Q.** And the TGI (RPMI-8226 leukemia)?
**A.** 8.44 µM

**Q.** And the GI50 (SN12C renal)?
**A.** 0.0317 µM

**Q.** What about the TGI (SN12C renal) of the same compound?
**A.** 8.95 µM

**Q.** And the GI50 (DU-145 prostate)?
**A.** 0.651 µM

**Q.** What about the TGI (DU-145 prostate) of the same compound?
**A.** > 100 µM

**Q.** What about the GI50 (HCT-116 colon) of the same compound?
**A.** 2.79 µM

**Q.** And the TGI (HCT-116 colon)?
**A.** > 100 µM

**Q.** And the GI50 (SK-MEL-5 melanoma)?
**A.** 1.03 µM

**Q.** And the TGI (SK-MEL-5 melanoma)?
**A.** 11.9 µM

**Q.** What about the GI50 (EKVX NSCLC) of the same compound?
**A.** 0.0733 µM

**Q.** And the TGI (EKVX NSCLC)?
**A.** 5.23 µM

**Q.** And the GI50 (HCT-15 colon)?
**A.** 0.465 µM

**Q.** And the TGI (HCT-15 colon)?
**A.** > 100 µM

**Q.** What about the GI50 (ACHN renal) of the same compound?
**A.** 0.1 µM

**Q.** What about the TGI (ACHN renal) of the same compound?
**A.** > 100 µM

**Q.** And the GI50 (OVCAR-5 ovarian)?
**A.** 0.16 µM

**Q.** What about the TGI (OVCAR-5 ovarian) of the same compound?
**A.** 16.8 µM

**Q.** What about the GI50 (HOP-62 NSCLC) of the same compound?
**A.** 1.94 µM

**Q.** And the TGI (HOP-62 NSCLC)?
**A.** 83.7 µM

**Q.** And the GI50 (NCI/ADR-RES ovarian)?
**A.** 3.39 µM

**Q.** What about the TGI (NCI/ADR-RES ovarian) of the same compound?
**A.** > 100 µM

**Q.** And the GI50 (HCC-2998 colon)?
**A.** 1.23 µM

**Q.** What about the TGI (HCC-2998 colon) of the same compound?
**A.** 38.2 µM

**Q.** What about the GI50 (A498 renal) of the same compound?
**A.** 0.0322 µM

**Q.** And the TGI (A498 renal)?
**A.** 0.337 µM

**Q.** What about the GI50 (786-0 renal) of the same compound?
**A.** 0.076 µM

**Q.** And the TGI (786-0 renal)?
**A.** 3.77 µM

**Q.** And the GI50 (SK-MEL-28 melanoma)?
**A.** 0.0896 µM

**Q.** And the TGI (SK-MEL-28 melanoma)?
**A.** 6.79 µM

**Q.** What about the GI50 (OVCAR-4 ovarian) of the same compound?
**A.** 2.25 µM

**Q.** And the TGI (OVCAR-4 ovarian)?
**A.** > 100 µM

**Q.** And the GI50 (COLO 205 colon)?
**A.** 0.275 µM

**Q.** And the TGI (COLO 205 colon)?
**A.** 67.8 µM

**Q.** And the GI50 (OVCAR-3 ovarian)?
**A.** 0.061 µM

**Q.** And the TGI (OVCAR-3 ovarian)?
**A.** 3.1 µM

**Q.** What about the GI50 (PC-3 prostate) of the same compound?
**A.** 0.0336 µM

**Q.** And the TGI (PC-3 prostate)?
**A.** 18.6 µM

**Q.** What about the GI50 (TK-10 renal) of the same compound?
**A.** 0.294 µM

**Q.** What about the TGI (TK-10 renal) of the same compound?
**A.** 7.94 µM

**Q.** What about the GI50 (LOX IMVI melanoma) of the same compound?
**A.** 0.552 µM

**Q.** What about the TGI (LOX IMVI melanoma) of the same compound?
**A.** 5.65 µM

**Q.** What about the GI50 (CAKI-1 renal) of the same compound?
**A.** 0.023 µM

**Q.** What about the TGI (CAKI-1 renal) of the same compound?
**A.** 18.1 µM

**Q.** What about the GI50 (KM12 colon) of the same compound?
**A.** 1.36 µM
